Experiments:
Type in all cases: cell-based
human TLR2 [1] = biological target: T1, human TLR2 (Homo sapiens, UniProt O60603); assay: TLR2 antagonism assay, HEK-TLR2-ELAM luciferase reporter cells stimulated with Pam3CSK4
T1 construct: expressed in transfected cells
Experimental: (§1) Either Pam3CSK4 and R-MALP-2 lipopeptides (EMC-Microcollections), or lipopolysaccharide (LPS, List Biologicals) are dissolved in water to a concentration of 1 mg/mL, sonicated 5 times for 30 seconds, and stored in aliquots at −20° C. Prior to addition to cells, an aliquot of the dissolved ligand is sonicated for 1 minute and then is diluted in medium to 2 ng/mL Pam3CSK4, 16 ng/mL R-MALP-2, or 100 ng/mL LPS. The final concentration in the assay is 0.2 ng/mL Pam3CSK4, 1.6 ng/mL R-MALP-2, or 10 ng/mL LPS.
(§2) The test compounds are stored as 30 mM stocks in […]. The final concentrations of the test compounds in the assay are 0.1, 0.3, 1, 3, 10, and 30 μM in 0.2% DMSO. 0.2% DMSO is used in the assay as a control.
(§3) HEK-TLR2-ELAM cells were generated by a two-step method. In step 1, Hek293 cells were transfected with pcDNA3.0 encoding human TLR2 followed by antibiotic selection with G418 in D-MEM supplemented with 10% fetal bovine serum (Gibco BRL) to generate Hek-TLR2 cells. In step 2, Hek-TLR2 cells were transfected with pELAM-luc/Zeo followed by antibiotic selection with Zeocin in D-MEM supplemented with 10% fetal bovine serum. Transfectants were screened for TLR2 responsiveness by measuring ligand-induced pELAM-luciferase reporter activity, and analyzed for TLR2 mRNA expression by RT-PCR.
Step 1. On day 1, HEK-TLR2-ELAM cells are plated at 2×10^5 cells/mL, 80 μL/well, in 96-well black plates. The cells are incubated at 37° C., 5% CO2, for 24 hours. The growth medium used is D-MEM, 10% fetal bovine serum, 2 mM L-glutamine, 10 μg/mL Ciprofloxacin, 300 μg/mL Geneticin (G418), and 150 μg/mL Zeocin.
Step 2. On day 2, 10 μL of each test compound is added to the wells, and 10 μL lipopeptide is added to all of the wells. The plates are then incubated at 37° C., 5% CO2, for 18 hours.
(§4) Step 3. On day 3, 25 μL of Steady-Glo reagent (Promega, Inc.) is added to each well. The plates are then shaken for 5 minutes, and the chemiluminescence of each well is read in a Wallac1450 MicroBetaTriLux counter. Dose-response curves were plotted in KaleidaGraph, version 3.5 Synergy Software, and IC50 values were calculated.

TLR4 = biological target: T2, TLR4 (Homo sapiens, UniProt O00206); assay: TLR4 antagonism assay, HEK-TLR4-MD2-ELAM luciferase reporter cells stimulated with LPS plus soluble CD14; settings: Table 6, 10 ng/mL LPS plus 10 nM soluble CD14, 18 hours
T2 construct: expressed in transfected cells
Experimental: as §1, §2
HEK293 cells stably carrying plasmids for TLR4, MD2, and the NF-κB reporter gene ELAM-1-luciferase (HEK-TLR4-MD2-ELAM) were generated as described by Yang et al., J. Biol. Chem. 275:20861-20866, 2000.
Step 1. On day 1, HEK-TLR4-MD2-ELAM cells were plated at 4×10^5 cells/mL, 80 μL/well, in 96-well black plates. The growth medium used is D-MEM, 10% fetal bovine serum, 2 mM L-glutamine, 10 μg/mL Ciprofloxacin, 300 μg/mL Geneticin (G418), 150 μg/mL Zeocin, and 50 μg/mL Hygromycin.
Step 2. On day 2, 10 μL of each test compound is added to the wells, and 10 μL of LPS plus 10 nM soluble CD14 (Biometec) is added to all of the wells. The plates are then incubated at 37° C., 5% CO2, for 18 hours.
as §4

human TLR2 [2] = biological target: T1, human TLR2; assay: TLR2 antagonism assay, HEK-TLR2-ELAM luciferase reporter cells stimulated with R-MALP-2; settings: Table 7, diacylated lipopeptide R-MALP-2 (TLR2 interacts with TLR6), 1.6 ng/mL
Experimental: as §1, §2
as §3, with “In step 2, Hek-TLR2 cells were transfected with pELAM-luc/Zeo followed by antibiotic selection with Zeocin in D-MEM supplemented with 10% fetal bovine serum.” left out, “RT-PCR. […]” for “RT-PCR.”
Step 3. […] The plates are then shaken for 5 minutes, and the chemiluminescence of each well is read in a Wallac1450 MicroBetaTriLux counter. Dose-response curves were plotted in KaleidaGraph, version 3.5 Synergy Software, and IC50 values were calculated. […]

[3] = Table 6, 0.2 ng/mL Pam3CSK4, 18 hours, ELAM-luciferase reporter
[4] = Table 7, triacylated lipopeptide Pam3CSK4 (TLR2 associates with TLR1), 0.2 ng/mL

T2 sequence (O00206 24-839): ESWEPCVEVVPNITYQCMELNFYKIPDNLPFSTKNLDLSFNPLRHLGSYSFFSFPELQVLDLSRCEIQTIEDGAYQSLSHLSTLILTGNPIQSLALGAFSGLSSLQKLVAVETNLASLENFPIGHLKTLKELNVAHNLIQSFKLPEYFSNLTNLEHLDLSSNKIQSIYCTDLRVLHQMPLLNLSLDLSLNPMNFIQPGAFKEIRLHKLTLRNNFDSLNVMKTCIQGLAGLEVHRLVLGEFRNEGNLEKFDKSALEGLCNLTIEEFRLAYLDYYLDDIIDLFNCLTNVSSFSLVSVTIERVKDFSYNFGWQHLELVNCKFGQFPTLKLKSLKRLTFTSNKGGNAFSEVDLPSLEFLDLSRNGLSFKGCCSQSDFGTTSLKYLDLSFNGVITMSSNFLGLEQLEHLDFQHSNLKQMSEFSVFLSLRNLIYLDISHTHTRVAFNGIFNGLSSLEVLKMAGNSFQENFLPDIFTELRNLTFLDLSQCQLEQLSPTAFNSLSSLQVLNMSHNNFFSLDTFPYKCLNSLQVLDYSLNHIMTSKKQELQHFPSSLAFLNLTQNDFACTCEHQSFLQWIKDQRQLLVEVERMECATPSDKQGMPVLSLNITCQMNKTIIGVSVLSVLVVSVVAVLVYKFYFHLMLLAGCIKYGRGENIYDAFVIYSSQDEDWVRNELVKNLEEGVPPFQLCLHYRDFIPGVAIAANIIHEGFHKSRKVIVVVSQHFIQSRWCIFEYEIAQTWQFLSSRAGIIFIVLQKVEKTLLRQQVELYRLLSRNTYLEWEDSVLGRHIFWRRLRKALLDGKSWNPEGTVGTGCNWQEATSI
T2 sequence (Q9Y6Y9 17-160 partner limits assumed): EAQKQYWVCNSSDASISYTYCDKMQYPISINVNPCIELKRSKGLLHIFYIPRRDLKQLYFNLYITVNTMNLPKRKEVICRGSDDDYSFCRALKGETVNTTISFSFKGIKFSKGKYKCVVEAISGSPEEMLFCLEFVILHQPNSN
T1 sequence (O60603 21-784): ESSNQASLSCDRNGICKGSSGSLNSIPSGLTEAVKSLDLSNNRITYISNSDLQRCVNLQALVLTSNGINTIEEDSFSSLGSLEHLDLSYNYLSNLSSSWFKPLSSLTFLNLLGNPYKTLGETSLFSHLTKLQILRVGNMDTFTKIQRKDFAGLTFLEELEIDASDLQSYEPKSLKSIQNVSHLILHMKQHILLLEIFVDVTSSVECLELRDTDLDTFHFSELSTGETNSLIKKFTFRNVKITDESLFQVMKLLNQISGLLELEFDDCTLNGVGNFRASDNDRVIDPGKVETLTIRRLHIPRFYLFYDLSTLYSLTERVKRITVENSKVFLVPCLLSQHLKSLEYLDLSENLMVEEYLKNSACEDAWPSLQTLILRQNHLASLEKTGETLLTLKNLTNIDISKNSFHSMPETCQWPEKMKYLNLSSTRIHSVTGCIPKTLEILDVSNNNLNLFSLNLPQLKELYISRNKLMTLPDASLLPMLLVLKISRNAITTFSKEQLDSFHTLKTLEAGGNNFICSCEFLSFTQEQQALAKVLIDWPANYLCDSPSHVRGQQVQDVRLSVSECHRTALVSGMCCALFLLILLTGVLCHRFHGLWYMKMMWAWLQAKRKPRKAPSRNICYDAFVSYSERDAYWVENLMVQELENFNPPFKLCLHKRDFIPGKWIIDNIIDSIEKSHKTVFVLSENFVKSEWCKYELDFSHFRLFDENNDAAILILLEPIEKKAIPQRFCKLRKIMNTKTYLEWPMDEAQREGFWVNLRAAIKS

| IC50 (human TLR2 [1]; [3]) [nM] | IC50 (TLR4) [nM] | IC50 (human TLR2 [2]) [nM] | IC50 (human TLR2 [1]; [4]) [nM] | Structure (SMILES) |
| --- | --- | --- | --- | --- |
| 770 | 3600 | – | – | CCCCCCCCCCCCCCCCCCCC(=O)N[C@@H](COP(=O)(O)OCCNC(=O)[C@@H](NC(=O)Cc1c[nH]c2ccc(OCc3ccccc3)cc12)C(C)C)C(=O)NCCC(O)CCCCCCCCCCCCC (mixture of isomers) [ER811254] |
| – | 12300 | – | – | CCCCCCCCCCCCCCCCCCCC(=O)N[C@@H](COP(=O)(O)OCCNC(=O)[C@@H](NC(=O)Cc1c[nH]c2ccccc12)[C@@H](C)CC)C(=O)NCCC(O)CCCCCCCCCCCCC (mixture of isomers) [ER811393] |
| 650 | 1800 | – | – | CCCCCCCCCCCCCCCCCCCC(=O)N[C@@H](COP(=O)(O)OCCNC(=O)[C@@H](NC(=O)Cc1c[nH]c2ccccc12)[C@@H](C)CC)C(=O)NCCC(O)CCCCCCCCCC (mixture of isomers) [ER811395] |
| – | 6600 | – | – | CCCCCCCCCCCCCCCCCCCC(=O)N[C@@H](COP(=O)(O)OCCNC(=O)[C@@H](NC(=O)Cc1c[nH]c2ccc(OCc3ccccc3)cc12)[C@@H](C)CC)C(=O)NCCC(O)CCCCCCCCCCCCC (mixture of isomers) [ER812011] |
| – | – | 20000 | 240 | CCCCCCCCCCCCCC(=O)N[C@H](COCC[C@@H](CCCCCCC)OC(=O)CCCCCCCCCCC)COP(=O)(O)OCCNC(=O)[C@@H](NC(=O)Cc1c[nH]c2ccccc12)[C@@H](C)CC [ER808977] |
| 440 | 700 | – | – | CCCCCCCCCCCCCCCC(=O)N[C@@H](COP(=O)(O)OCCNC(=O)[C@@H](NC(=O)Cc1c[nH]c2ccccc12)[C@@H](C)CC)C(=O)NCCCOC(=O)CCCCCCCCCCC [ER811211] |
| 390 | 1000 | – | – | CCCCCCCCCCCCCCCC(=O)OCCCNC(=O)C(COP(=O)(O)OCCNC(=O)[C@@H](NC(=O)Cc1c[nH]c2ccccc12)[C@@H](C)CC)NC(=O)CCCCCCCCCCC (stereo partly drawn) [ER811212] |
| 750 | 400 | – | – | CCCCCCCCCCCCCCCC(=O)N[C@@H](COP(=O)(O)OCCNC(=O)[C@@H](NC(=O)Cc1c[nH]c2ccc(Br)cc12)[C@@H](C)CC)C(=O)NCCCOC(=O)CCCCCCCCCCC [ER811232] |
| – | 200 | – | – | CCCCCCCCCCCCCCCC(=O)N[C@@H](COP(=O)(O)OCCNC(=O)[C@@H](NC(=O)Cc1c[nH]c2ccc(-c3ccccc3)cc12)[C@@H](C)CC)C(=O)NCCCOC(=O)CCCCCCCCCCC [ER811243] |
| 430 | 3400 | 30000 | 440 | CCCCCCCCCCCCCCCC(=O)OC[C@H](CNC(=O)[C@H](COP(=O)(O)OCCNC(=O)[C@@H](NC(=O)Cc1c[nH]c2ccc(OCc3ccccc3)cc12)[C@@H](C)CC)NC(C)=O)OC(=O)CCCCCCCCCCCCCCC [ER811245] |
| 500 | 1800 | – | – | CCCCCCCCCCCCCCCC(=O)OC[C@H](CNC(=O)[C@@H](COP(=O)(O)OCCNC(=O)[C@@H](NC(=O)Cc1c[nH]c2ccc(OCc3ccccc3)cc12)[C@@H](C)CC)NC(C)=O)OC(=O)CCCCCCCCCCCCCCC [ER811261] |
